Experimental data taken from patent US20240207215A1, “MARC1 INHIBITORS FOR TREATMENT OF LIPID METABOLISM DISORDERS” (priority 2020, published 2024).

Tests used:
[1] = molecular target: T1, human mARC1 (Homo sapiens, UniProt Q5VT66); experiment: mARC1 three-component system (mARC1, cytochrome b5, cytochrome b5 reductase): conversion of benzamidoxime to benzamidine, NADH consumption at 340 nm / HPLC of benzamidine; type: biochemical; settings: recombinant mARC1 + CYB5B + CYB5R3, NADH, substrate BAO, 37° C., MES pH 6.0; FIGS. 1-4 (N-hydroxyurethane and urethane 1 mM in FIGS. 1, 3)
T1 construct: made in house; host or cells: Escherichia coli
T1 sequence (Q5VT66 53-337 limits assumed): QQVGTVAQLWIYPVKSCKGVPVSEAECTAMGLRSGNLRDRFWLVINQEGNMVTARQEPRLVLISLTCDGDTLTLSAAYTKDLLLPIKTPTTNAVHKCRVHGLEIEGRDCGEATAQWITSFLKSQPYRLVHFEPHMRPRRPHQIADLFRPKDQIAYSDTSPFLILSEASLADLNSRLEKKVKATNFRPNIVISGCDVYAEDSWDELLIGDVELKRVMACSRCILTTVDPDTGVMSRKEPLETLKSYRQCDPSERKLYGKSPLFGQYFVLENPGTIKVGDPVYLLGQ
Method: (§1) The compounds N-hydroxyurethane (R1═H, R2═CH2CH3) and ethyl-N-(3-chlorophenyl) -hydroxycarbamate (R1═3-chlorophenyl, R2═CH2CH3) are used as examples of active compounds. FIGS. 1, 3 and 4 show the absorbance at 340 nm in dependence on the time for an incubation with the three-component system mARC1 and mARC2, respectively, cytochrome b5 and cytochrome b5 reductase, which catalyze the conversion of the model substrate benzamidoxime (BAO) to benzamidine in the presence of the cosubstrate NADH (5). The decrease in the concentration of NADH due to its absorption maximum at 340 nm is thereby measured. From the measurement results, which are shown in the bar graph of FIG. 4, the inhibition of the conversion of benzamidoxime to benzamidine is evident by the lower consumption of NADH. NADH represents the required cosubstrate for the conversion. […] The down-regulation is only observed for mARC1 and not for mARC2 (FIG. 2).
(§2) 105 μl MES buffer (20 mM, pH 6.0) was placed in a micro-UV cuvette. […] This batch was then set as a blank sample and the absorbance was zeroed. […] Herein, the absorbance spectrum between 300 nm and 400 nm was recorded every 30 s for a period of 10 min (spectrophotometer Cary® 50 Bio with Walter peltier system PCB 150, Agilent). […] The conversion rates of BAO with and without inhibitor were compared based on the absorbance change at 340 nm to determine the degree of inhibition. […]

[2] = molecular target: T2, human mARC2 (Homo sapiens, UniProt Q969Z3); experiment: mARC2 three-component system (mARC2, cytochrome b5, cytochrome b5 reductase): conversion of benzamidoxime to benzamidine, NADH consumption at 340 nm / HPLC of benzamidine; type: biochemical; settings: recombinant mARC2 + CYB5B + CYB5R3, NADH, substrate BAO; FIG. 2
T2 construct: made in house; host or cells: Escherichia coli
T2 sequence (Q969Z3 36-335): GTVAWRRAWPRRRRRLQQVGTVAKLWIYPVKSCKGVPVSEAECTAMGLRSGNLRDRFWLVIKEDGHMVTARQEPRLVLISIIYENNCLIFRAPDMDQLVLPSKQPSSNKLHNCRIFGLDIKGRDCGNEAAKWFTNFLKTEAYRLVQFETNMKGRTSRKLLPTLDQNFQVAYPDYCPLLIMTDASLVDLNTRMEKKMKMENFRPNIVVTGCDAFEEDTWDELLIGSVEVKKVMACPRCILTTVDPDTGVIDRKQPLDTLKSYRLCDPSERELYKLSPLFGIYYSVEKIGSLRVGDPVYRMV
Method: as §1, §2

[3] = tested on: cytochrome b5 and/or cytochrome b5 reductase; experiment: Inhibition of the electron transport partners, concluded from the non-inhibited mARC2 conversion; type: biochemical, human; settings: concluded from the non-inhibited conversion for mARC2
Method: as §1, §2

SMILES | inhibition of the conversion of benzamidoxime to benzamidine by mARC1 [1] | down-regulation of the conversion of benzamidoxime to benzamidine by mARC2 [2] | inhibition of cytochrome b5 and/or cytochrome b5 reductase [3]
CCOC(=O)NO [N-hydroxyurethane] | inhibition occurs | not for mARC2 | are not inhibited
CCOC(=O)N(O)c1cccc(Cl)c1 [ethyl-N-(3-chlorophenyl)-hydroxycarbamate] | inhibition occurs | – | –
